{"source": "patent US7429482B2", "about": "“Screening tools for discovery of novel anabolic agents” (United States of America as represented by the Department …, priority 2005, dated 2008)", "tested_on": "human IGF-1 promoter", "experiment": "Human IGF-1 promoter luciferase reporter assay in HepG2 cells", "assay_type": "cell-based", "description": "pREP4.hAR, expressing full length human AR, and pCMV.Sport.β-Gal, expressing β-galactosidase under a CMV promoter, were as described (Zhao et al., Steroids 69: 357-366, 2004). pcDNA5.rGR, expressing rat glucocorticoid receptor, was provided by Dr. Diane Robins (University of Michigan). The rARC562G vector expressing rat AR with a C562G mutation in the DBD, which results in a loss of DNA binding. The IGF-1 reporter genes pOLuc.1630, pOLuc1300, pOLuc926, pOLuc 320 were provided by Dr. Peter Rotwein (Oregon Health & Science University). These reporters expressed firefly luciferase under the control of 320 to 1630 bases upstream of the transcriptional start site of the human IGF-1 promoter as described in (Kim et al., Mol Endocrinol 5: 1964-1972, 1991). pEGX 4T-1 hAR2, expressing GST fused to the N-terminus of AR DNA-binding domain, was provided by Robert J. Matusik, Ph.D. (Vanderbuilt University Medical Center). pRL-CMV expressing Renilla luciferase was from Promega (Madison, Wis.).\nHepG2 cells (ATCC, Bethesda, Md.) were maintained in Dulbecco's modified Eagle's medium (DMEM), supplemented with 10% fetal bovine serum (FBS) and antibiotics (penicillin 100 U/ml, streptomycin 100 μg/ml). Cells were seeded at 5×10^4 cells/per well into wells of 24-well plates containing DMEM supplemented with 10% charcoal-dextran stripped FBS (CDS-FBS). The next day, cells were transfected with a total of 300 ng DNA per well using Lipofectamine Plus (Invitrogen) with plasmids as indicated in the figure legends. Three hours after transfection, cells were covered with DMEM supplemented with 10% CDS-FBS and either hormone dissolved in ethanol, or ethanol, as indicated in the figures. […] After overnight incubation, activities of firefly and Renilla luciferase were determined using the Dual Luciferase Assay system (Promega).\nReporter plasmids expressing firefly luciferase under the control of upstream regions of the IGF-1 promoter were constructed by PCR amplification of segments of interest using primers shown in Table 2, using pOLuc-1630 as a template. The location of each amplified fragment is relative to the transcriptional start site. PCR amplification was conduced using a high fidelity Taq polymerase (Pfx, Invitrogen). PCR products were cloned into pCR2.1-TOPO TA (Invitrogen) and the sequences of the inserts were verified. Inserts were excised with Kpn I and Xho I, and were subcloned into pGL3-Promoter (Promega) at these same sites. PGL3-Promoter expresses firefly luciferase under the control of a minimal promoter.", "key": {"[1]": {"details": "HepG2 + AR, increasing doses of testosterone"}, "[2]": {"details": "HepG2 + AR, testosterone (FIG. 17)"}}, "data": [{"smiles": "C[C@]12CC[C@H]3[C@@H](CCC4=CC(=O)CC[C@@]43C)[C@@H]1CC[C@@H]2O", "note": "[testosterone]", "values": [{"measurement": "activation of the upstream promoter of the human IGF-1 gene", "setting": "Hep G2 cells, FIG. 18", "value": "activated"}, {"measurement": "dose at which induction of luciferase expression begins, pGL3-230 (ARE1)", "setting": "HepG2 + AR", "value": 0.25, "unit": "nM"}, {"measurement": "induction of pGL3-32 at the lowest concentration tested", "setting": "HepG2 + AR, 0.05 nM testosterone", "value": "~10", "unit": "fold"}, {"measurement": "maximal induction and sensitivity, pGL3-13A (ARE2)", "setting": "[1]", "value": "intermediate"}, {"measurement": "plateau of induction, pGL3-32 (both AREs)", "setting": "[1]", "value": 25, "unit": "fold"}, {"measurement": "plateau of induction, pGL3-230 (ARE1)", "setting": "[1]", "value": "approximately 8 fold"}, {"measurement": "increase in luciferase expression, construct containing ARE2 (pGL3-13A)", "setting": "HepG2 + AR, testosterone", "value": "more than 20 fold"}, {"measurement": "increase in luciferase expression, reporters including ARE1 (pGL3-230, pGL3-22)", "setting": "HepG2 + AR, testosterone", "value": "more than 5 fold"}, {"measurement": "induction of reporter containing both ARE1 and ARE2 (pGL3-32)", "setting": "HepG2 + AR, testosterone", "value": "greatest induction"}, {"measurement": "responsiveness of reporter with 100 bases downstream of ARE2 (pGL3-25a)", "setting": "HepG2 + AR, testosterone", "value": "Little androgen responsiveness"}, {"measurement": "activation of reporter p3-13a (ARE2)", "setting": "[2]", "value": "approximately 20 fold"}, {"measurement": "activation of reporter p3-32 (both AREs)", "setting": "[2]", "value": "~30", "unit": "fold"}, {"measurement": "induction of luciferase expression with DBD mutant AR (AR-C562G)", "setting": "HepG2, pGL3-22, pGL3-13A, pGL3-32, testosterone 50 nM", "value": "virtually abolished"}]}]}
